Data on 15 compounds can be found in patent US4548818A, “Composition and methods for the treatment of chronic obstructive airway disease and cardiac disease using 3-alkylxanthines” (priority 1978, dated 1985).

One data set relates to Guinea-pig trachea. The experiment in a line: Isolated guinea-pig trachea (relaxation of carbacholine-contracted tracheal muscle). The following applies: >1 more potent than theophylline; for Guinea-Pig trachea Potency rations of theophylline: Table II, molar potency ratio from EC50 values (50% maximum response), theophylline = 1 by definition, carbacholine 0.1 μg/ml; for Guinea-pig Tracheal Preparation Potency: Table III, potency ratio from EC50 values, theophyllin = 1 by definition. How it is done:
Guinea-pigs of both sexes, weighing between 150 and 250 g, were killed by a blow on the head and bled. The trachea was removed and cut spirally yielding one or two preparations. The tracheal preparations were mounted in organ baths containing Krebs solution maintained at 37° C. and bubbled with carbogen (95% O2 +5% CO2). Isometric tension reflecting the activity in circular tracheal muscle was recorded by means of a force displacement transducer. Initial tension was set at 0.5 g which was the approximate basal tension kept during the experiment. Evaluation of relaxant effects was done when the preparations had contracted to a stable tension by the addition of carbacholine 0.1 μg/ml to the bath. […] After washing out the drugs the trachea resumed its basal tone and was left to stabilize for at least 15 min. before the next drug evaluation was performed. Between two evaluations of theophylline the effect of the test drug was examined and its EC50 value was compared with the mean of the previous and following EC50 values of theophylline.
(§1) The left column lists molar potency ratios for bronchodilatation between theophylline and various xanthine compounds. Toxic symptoms occuring before death in mice receiving constant rate infusion of drug i.v. are accounted for in the middle column. […] The far right column indicates cardiotonic activity as positive chronotropic potency.
The guinea-pig trachea were prepared as was discribed previously. Isomeric tension reflecting the activity in circular tracheal muscle was recorded by a force displacement transducer.

From the text in data set [1]: as §1
Another data set deals with Guinea-pig heart. The experiment in a line: Isolated guinea-pig hearts (Langendorff), chronotropic potency. As to conditions: Table II; positive chronotropic potency; theophylline = 1. How it is done:
From the bled guinea-pigs, the hearts were immediately removed and perfused with oxygenated Krebs solution at 37° according to Langendorff. The heart was mounted in a thermostatically controlled organ bath (25 ml) containing Krebs solution. A saline-filled, open-end polyethylene catheter was inserted into the right ventricle through the pulmonary artery. The catheter was fixed to the pulmonary artery by a ligature just above the valvular plane. It was connected to a pressure transducer (P23 AC), making it possible to record changes in intraventricular pressure. From these, the contraction frequency was obtained. Drugs were given as single bolus injections into the perfusion solution.
as §1

The nature of data set [2]: Acute toxicity studies in mice (intravenous and oral). The class given is in vivo, male NMRI mice. The following applies: i.v. or oral, observed 14 days. How it is done: Male NMRI mice, weighing 20-26 g. starved for 6 h were used. The compounds, dissolved in 0.5M NaOH and 0.85% NaCl-solution (pH 10.6-12.1) were administered as follows:
(a) intravenously, 0.1 ml/10 g at an injection rate of 0.3 ml per minute
At least seven dose levels, doses increasing in a geometric progression with a factor 1.2, were examined. Each dose was given to 5 animals. […] The position of extremities in dead animals indicated whether they had died in convulsions or not.

Setting [3] is: constant rate i.v. infusion, type of convulsion as in the effects column.
The mark [4] stands for this setting: toxic symptoms before death, constant rate i.v. infusion.

Read-outs that look alike come from different tables or passages of the source.

`Cn1c(=O)c2c(ncn2C)n(C)c1=O` [Caffeine, caffeine, reference compound]: the “Guinea-Pig trachea Potency rations of theophylline” value (“Guinea-Pig trachea Potency rations” below) with Guinea-pig trachea turned out to be 1. Besides, in data set [1] (constant rate i.v. infusion), the “Convulsion test mice i.v., Death” value stood at 391.7 ± 17.7 mg/kg i.v. The “Convulsion test mice i.v., number of animals with convulsions / animals tested” value in data set [1] (setting [3]) is reported as 20/20; in data set [1] (constant rate i.v. infusion, type of convulsion as in the effects column, listed as caffeine), 20 out of 20. Also, the “Convulsion test mice i.v., Effects” value in data set [1] (setting [4]) is given as “tonic conv”; in data set [1] (toxic symptoms before death, constant rate i.v. infusion, listed as caffeine), “consistently produced tonic convulsions”. Further, the “Guinea-Pig heart Potency ratios of theophylline, Chronotrop” value (“Guinea-Pig heart Potency ratios” for short) with Guinea-pig heart is listed as 0.5.
Consider `CC(C)(C)Cn1c(=O)[nH]c(=O)c2[nH]cnc21` [D 4034, 3,7-dihydro-3-(2,2-dimethylpropyl)-1H-purine-2,6-dione], for which, in the data set with Guinea-pig trachea, the “Guinea-Pig trachea Potency rations” value worked out at 3 and the “Guinea-pig Tracheal Preparation Potency” value was 3.0. In addition, in data set [1] (constant rate i.v. infusion), the “Convulsion test mice i.v., Death” value is recorded as 519.1 ± 16.6 mg/kg i.v. Besides, the “Guinea-Pig heart Potency ratios” value in the data set with Guinea-pig heart was 3.
As for `Cc1nc2c([nH]1)c(=O)[nH]c(=O)n2CC(C)(C)C` [D 4070, 3,7-dihydro-3-(2,2-dimethylpropyl)-8-methyl-1H-purine-2,6-dione], in the data set with Guinea-pig trachea, the “Guinea-Pig trachea Potency rations” value was 1.8 and the “Guinea-pig Tracheal Preparation Potency” value is reported as 1.8. For the same compound, in data set [1] (constant rate i.v. infusion), the “Convulsion test mice i.v., Death” value is on record as 693.3 ± 22.2 mg/kg i.v. Besides, the “Convulsion test mice i.v., Effects” value in data set [1] (mouse, in vivo, iv) was “loss of balance”. In addition, in the data set on Guinea-pig heart, the “Guinea-Pig heart Potency ratios” value is listed as 1.5.
As to `O=c1[nH]c(=O)n(CCO)c2nc[nH]c12` [D 4077, reference compound], the “Guinea-pig Tracheal Preparation Potency” value with Guinea-pig trachea came to 0.1.
`CC(O)Cn1c(=O)[nH]c(=O)c2[nH]cnc21` (stereo not drawn) [D 4083, reference compound]: in the data set with Guinea-pig trachea, the “Guinea-pig Tracheal Preparation Potency” value was found to be 0.1.
Regarding `Cc1nc2c([nH]1)c(=O)[nH]c(=O)n2CC(C)O` (stereo not drawn) [D 4125, reference compound], the “Guinea-pig Tracheal Preparation Potency” value in the data set with Guinea-pig trachea stood at 0.4.
As for `O=c1[nH]c(=O)n(C2CCCC2)c2nc[nH]c12` [D 4132, 3-cyclopentyl-3,7-dihydro-1H-purine-2,6-dione], the “Guinea-Pig trachea Potency rations” value in the data set on Guinea-pig trachea came out at 5.65. In addition, in data set [1] (constant rate i.v. infusion), the “Convulsion test mice i.v., Death” value was 593 ± 21.9 mg/kg i.v. The “Guinea-Pig heart Potency ratios” value in the data set with Guinea-pig heart is 3.4.
Take `Cc1nc2c([nH]1)c(=O)[nH]c(=O)n2C1CCCC1` [D 4134, 3-cyclopentyl-3,7-dihydro-8-methyl-1H-purine-2,6-dione]: in the data set with Guinea-pig trachea, the “Guinea-Pig trachea Potency rations” value was determined as 5.85.
Take `Cc1nc2c([nH]1)c(=O)[nH]c(=O)n2CC1CCCCC1` [D 4137, 3,7-dihydro-8-methyl-3-cyclohexylmethyl-1H-purine-2,6-dione]: the “Guinea-Pig trachea Potency rations” value in the data set on Guinea-pig trachea amounted to 4. Moreover, in data set [1] (constant rate i.v. infusion), the “Convulsion test mice i.v., Death” value is reported as 493.1 ± 19.4 mg/kg i.v. In addition, in the data set on Guinea-pig heart, the “Guinea-Pig heart Potency ratios” value is listed as 10.
The corresponding values for `O=c1[nH]c(=O)n(CC2CCCCC2)c2nc[nH]c12` [D 4138, 3,7-dihydro-3-cyclohexylmethyl-1H-purine-2,6-dione] are 5, 543.6 ± 31.7 mg/kg i.v and 15.
In the case of `O=c1[nH]c(=O)n(C2CC2)c2nc[nH]c12` [D 4161, 3-cyclopropyl-3,7-dihydro-1H-purine-2,6-dione], the “Guinea-Pig trachea Potency rations” value in the data set with Guinea-pig trachea was found to be 0.5. Besides, the “Convulsion test mice i.v., Death” value in data set [1] (constant rate i.v. infusion) is on record as 1030 ± 39.3 mg/kg i.v. Also, the “Convulsion test mice i.v., number of animals with convulsions / animals tested” value in data set [1] (mouse, in vivo, iv) was 1/10.
Regarding `O=c1[nH]c(=O)n(C2CCC2)c2nc[nH]c12` [D 4164, 3-cyclobutyl-3,7-dihydro-1H-purine-2,6-dione], the “Guinea-Pig trachea Potency rations” value with Guinea-pig trachea worked out at 3.8. The “Convulsion test mice i.v., Death” value in data set [1] (constant rate i.v. infusion) was determined as 519.2 ± 16.86 mg/kg i.v. In addition, the “Convulsion test mice i.v., number of animals with convulsions / animals tested” value in data set [1] (mouse, in vivo, iv) is reported as 3/10. For the same compound, in the data set with Guinea-pig heart, the “Guinea-Pig heart Potency ratios” value is given as 2.1.
`Cc1nc2c([nH]1)c(=O)[nH]c(=O)n2CC(C)C` [D 4169, 3,7-dihydro-8-methyl-3-(2-methylpropyl)-1H-purine-2,6-dione]: in the data set on Guinea-pig trachea, the “Guinea-pig Tracheal Preparation Potency” value was determined as 3.3.
Still for that read-out and setting: as for `O=c1[nH]c(=O)n(CCCO)c2nc[nH]c12` [D 4184, reference compound], the figure is 0.1.
`Cn1c(=O)c2[nH]cnc2n(C)c1=O` [Theophylline, theophylline, reference compound]: the “Convulsive activity in acute toxicity studies” value in data set [2] is on record as “repeatedly shown to occur”. For the same compound, the “Guinea-pig Tracheal Preparation Potency” value in the data set with Guinea-pig trachea was 1.0. Further, in data set [1] (constant rate i.v. infusion), the “Convulsion test mice i.v., Death” value is listed as 446.3 ± 9.6 mg/kg i.v. In addition, the “Convulsion test mice i.v., number of animals with convulsions / animals tested” value is reported as 30/30 in data set [1] (setting [3]) and 30 out of 30 in data set [1] (constant rate i.v. infusion, type of convulsion as in the effects column, listed as theophylline). The “Convulsion test mice i.v., Effects” value is reported as “tonic conv” in data set [1] (setting [4]) and “consistently produced tonic convulsions” in data set [1] (toxic symptoms before death, constant rate i.v. infusion, listed as theophylline).
